# From PMC8791944, “GLUT3 inhibitor discovery through in silico ligand screening and in vivo validation in eukaryotic expression systems” (Scientific Reports, 2022)
# Biological target: T1, GLUT1 (Homo sapiens, UniProt P11166)
# T1 construct: expressed in transfected cells; host or cells: Saccharomyces cerevisiae hxt0 strain EBY.S7 (fgy1)
# T1 sequence (P11166 1-492): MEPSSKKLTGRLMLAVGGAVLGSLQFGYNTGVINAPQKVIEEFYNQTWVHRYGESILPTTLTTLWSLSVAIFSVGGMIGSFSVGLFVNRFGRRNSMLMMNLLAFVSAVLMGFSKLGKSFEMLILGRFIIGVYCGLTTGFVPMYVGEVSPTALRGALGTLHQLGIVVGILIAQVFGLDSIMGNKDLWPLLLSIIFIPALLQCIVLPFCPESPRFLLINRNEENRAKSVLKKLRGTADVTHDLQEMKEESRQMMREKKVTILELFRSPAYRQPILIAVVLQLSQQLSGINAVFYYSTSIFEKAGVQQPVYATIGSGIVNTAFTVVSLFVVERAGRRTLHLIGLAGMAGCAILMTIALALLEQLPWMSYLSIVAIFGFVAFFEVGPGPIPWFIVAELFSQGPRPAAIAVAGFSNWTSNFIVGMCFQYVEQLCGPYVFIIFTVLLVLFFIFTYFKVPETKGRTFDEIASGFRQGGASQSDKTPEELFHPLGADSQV
# Test: Glucose transport assay, GLUT1 expressed in hxt^0 yeast cells EBY.S7
# Type: cell-based
# Conditions: read-out: IC50 for GLUT1 transport inhibition
# Description: The most studied GLUTs are Class 1 GLUTs (GLUT1-4) and a Class 2 GLUT, GLUT5 (a fructose-only transporter). GLUT3 sequence homology and identity is 79% and 64%, 71% and 52%, 74% and 57%, and 60% and 38% with GLUT1, GLUT2, GLUT4, and GLUT5, respectively. The hxt^0 yeast cell systems expressing functional GLUT1-4[65],[69] and GLUT5[66] allow us to determine the in vivo transport activity (substrate uptake by a GLUT into whole cells) for individual GLUTs and establish GLUT3 inhibitor selectivity for these transporters. […] Given the higher sequence similarity within Class 1 GLUTs, we expected GLUT3 inhibitors to affect Class 1 GLUTs much more than GLUT5. Indeed, G3iA-G3iF reduced the transport activities of some of the other Class 1 GLUTs (Fig. 3A–C, Table 2, Supplementary Fig. S6). […] For example, G3iB was an equipotent inhibitor of GLUT4, while G3iD and G3iE inhibited GLUT1 in a similar manner to GLUT3. […] Moreover, G3iD affected all Class 1 GLUTs, having the best relative selectivity for GLUT4.
# Figure 3 Effect of GLUT3 inhibitors on GLUT1, GLUT2, GLUT4, and GLUT5. The transport activity was assayed as the substrate uptake in hexose transporter-deficient yeast cells expressing functional GLUT1[65], GLUT2[69], GLUT4[65], or GLUT5[66]. […] Transport assay was initiated by the addition of C^14-labeled substrate and stopped after 10 min (see “Materials and methods” for details). (A–D) Effect of G3iA-G3iF, at 50 µM concentration, on the relative transport activities of GLUT1 (A), GLUT2 (B), GLUT4 (C), and GLUT5 (D). Standard deviations for experimental points come from at least three independent measurements.
# The plasmids containing functional constructs of GLUT1-5 were transformed in the corresponding hxt^0 strains[65],[66],[73] (EBY.VW4000 for GLUT5S72Y, EBY.S7 for GLUT1, GLUT2∆loopS_Q455R, GLUT3 and GLUT3S66Y, and SDY.022 for GLUT4) and grown on 2% (w/v) agar plates of the respective media supplemented with 1% (w/v) maltose. An initial culture of ~ 10 ml was started with a few colonies and grown for 2–3 days if the media was SC-uracil with 1% (w/v) maltose (GLUT1, GLUT3, GLUT4) or 1–2 days if the media was YEP with 1% (w/v) maltose and 100 µg/ml geneticin G418 (GLUT2∆loopS_Q455R and GLUT5S72Y). […] Then, cells were transferred in the same media so that OD600nm ~ 0.5 and grown further for 1–2 days.
# For transport activity assay, cells in the hexose media were centrifuged (1000×g, 5 min, room temperature), washed once with PBS buffer (10 mM Na2HPO4, 1.8 mM KH2PO4, 2.7 mM KCl, 137 mM NaCl, pH 7.4), and resuspended in PBS buffer at an OD600nm ~ 10; each assay contained 100 µl of this cell solution. […] Substrate uptake into cells was linear for more than 20 min. […] The filtration membranes were transferred into scintillation vials with 10 ml of Scintillation Solution (BioSafeII; Research Products International, Mount Prospect, IL, USA), and vortexed briefly. The radioactivity was determined with a scintillation counter (Tri-carb 2900TR, Perkin Elmer, USA). As all compounds were solubilized in dimethyl sulfoxide (DMSO), controls for determining the relative transport activity included 1% (v/v) DMSO to represent DMSO used as vehicle control (i.e., 100% activity), and known inhibitors at saturating concentrations, 200 µM phloretin for GLUT1-4[69],[82], and 100 µM N-[4-(methylsulfonyl)-2-nitrophenyl]-1,3-benzodioxol-5-amine (MSNBA) for GLUT5 (i.e., complete inhibition). […] Data were analyzed with GraphPad Prism (San Diego, CA, USA).
# Supplementary Figure S6. Dose response curves for GLUT3 inhibitors on the transport activities of GLUT1, GLUT2, and GLUT4 in hxt^0 yeast cells. Dose response curves for GLUT3 inhibitors in GLUT1 (top row), GLUT2 (middle row), and GLUT4 (bottom row). […] Error bars represent standard deviations from at least three independent measurements. Graphs, data analysis, and IC50 values were generated with GraphPad (www.graphpad.com).
row,SMILES,IC50 [µM]
1,"CC(=O)Nc1ccc(S(=O)(=O)Nc2ccc(Nc3cc(N(C)C)nc(C)n3)cc2)cc1 [G3iA, N-(4-{[(4-{[6-(dimethylamino)-2-methylpyrimidin-4-yl]amino}phenyl)amino]sulfonyl}phenyl)acetamide]",> 50
2,"COc1ccccc1-n1c(/C=C/c2ccc(O)cc2)nc2ccc(Br)cc2c1=O [G3iB, 6-bromo-2-[(E)-2-(4-hydroxyphenyl)ethenyl]-3-(2-methoxyphenyl)quinazolin-4(3H)-one]",25 ± 8.6
3,Cc1cccnc1OC1CCN(c2cc(N3CCCC3CO)ncn2)CC1 (stereo not drawn) [G3iC],49.4 ± 6.7
4,Cc1cc(NC(=O)CCC2Cc3ccccc3NC2=O)nc(-c2ccccc2)n1 (stereo not drawn) [G3iD],17.7 ± 2.3
5,"O=C(Nc1cccc(Cl)c1)c1cccc(NC(=O)c2cccc([N+](=O)[O-])c2)c1 [G3iE, N-{3-[(3-chloroanilino)carbonyl]phenyl}-3-nitrobenzamide]",22.4 ± 3.7
6,Cc1ccccc1CN(Cc1nnc(C(C)(C)C)o1)c1ccc2nc(O)[nH]c2c1 [G3iF],> 50
